The source of these data is PubChem BioAssay AID1259408 (Genetic Toxicology Data Bank (GENE-TOX), 2018).

This data set relates to GENE-TOX genotoxicity assays, various organisms and cells. Put plainly: GENE-TOX mutagenicity studies.
Setting [1] is: Species/Cell Type: Escherichia coli polA (W3119 vs P3478), Assay Type: Rec-assay, DNA effects (bacterial DNA repair), Assay Code: RE1+, Evaluation Type: Evaluation A (Pre-1980).

Molecules are shown by their SMILES. The source made the active and inactive calls. No rule for the calls is given here.

For `O=NN1CCCCC1`, the mutagenic call (Species/Cell Type: Drosophila melanogaster, Assay Type: Aneuploidy, partial sex chromosome loss, chromosome aberrations, Assay Code: DAPT, Evaluation Type: Evaluation A (Pre-1980)) was “no conclusion”; the mutagenic call (Species/Cell Type: Drosophila melanogaster, Assay Type: Aneuploidy, whole sex chromosome loss, chromosome aberrations, Assay Code: DACT, Evaluation Type: Evaluation A (Pre-1980)) was “no conclusion”; the mutagenic call (Species/Cell Type: Drosophila melanogaster, Assay Type: Sex-linked recessive lethal gene mutation, Assay Code: SRL+, Evaluation Type: Evaluation A (Pre-1980)) is “active; positive”; the mutagenic call under setting [1] is “active; positive”; the mutagenic call (Species/Cell Type: Nonhuman, Assay Type: Sister-chromatid exchange (SCE) in vivo, Assay Code: SC3+, Evaluation Type: Evaluation B (Post-1980)) is “active; positive”; the mutagenic call (Species/Cell Type: Saccharomyces cerevisiae, Assay Type: Forward gene mutation, Assay Code: YEF+*, Activation: With metabolic activation, Evaluation Type: Evaluation A (Pre-1980)) was “active; positive”. Moreover, the mutagenic call is “active; positive” (Species/Cell Type: Saccharomyces cerevisiae, Assay Type: Reverse gene mutation, Assay Code: YER+*, Activation: With metabolic activation, Evaluation Type: Evaluation A (Pre-1980)); “active; positive” (Species/Cell Type: Salmonella typhimurium (one or more of the five standard strains: TA98, TA100, TA1535, TA1537, and TA1538), Assay Type: Histidine reverse gene mutation, Ames assay, Assay Code: SAL+*, Activation: With metabolic activation, Evaluation Type: Evaluation A (Pre-1980)); “active; positive” (Species/Cell Type: Syrian hamster embryo (SHE) cells, Assay Type: Cell transformation, clonal assay, Assay Code: CTC+, Evaluation Type: Evaluation A (Pre-1980)). Where the note is “Species/Cell Type: Nonhuman, Assay Type: In vivo carcinogenicity studies, Assay Code: CCG+, Evaluation Type: Evaluation A (Pre-1980)”, the call was “active; positive”.

For `Nc1c(N=Nc2ccc(S(=O)(=O)O)cc2)cc(N=Nc2ccc(S(=O)(=O)O)cc2)c(N)c1N=Nc1ccc(S(=O)(=O)O)cc1`, the mutagenic call (Species/Cell Type: Salmonella typhimurium (one or more of the five standard strains: TA98, TA100, TA1535, TA1537, and TA1538), Assay Type: Histidine reverse gene mutation, Ames assay, Assay Code: SALT, Evaluation Type: Evaluation A (Pre-1980)) is recorded as “no conclusion”.

In the case of `C=CCn1c(=O)n(C)c2c(=O)n(C)c(=O)n(C)c21`, the mutagenic call (Species/Cell Type: Allium cepa, Assay Type: Chromosome aberrations, Assay Code: ALC+D, Dose Response: With dose response, Evaluation Type: Evaluation A (Pre-1980)) is “active; positive”.

As for `OCCI`, the mutagenic call was “active; positive” under setting [1]; “inactive; negative” (Species/Cell Type: Mouse, Sex: Male, Assay Type: Sperm morphology, Assay Code: SPI-, Evaluation Type: Evaluation A (Pre-1980)); “active; positive” (Species/Cell Type: Salmonella typhimurium (one or more of the five standard strains: TA98, TA100, TA1535, TA1537, and TA1538), Assay Type: Histidine reverse gene mutation, Ames assay, Assay Code: SAL+, Evaluation Type: Evaluation A (Pre-1980)).

For `CN(N=O)C(=O)C(=O)N(C)N=O`, the mutagenic call by setting is: (Species/Cell Type: Arabidopsis species, Assay Type: Gene mutation, Assay Code: ARM+, Evaluation Type: Evaluation A (Pre-1980)) “active; positive”; (Species/Cell Type: Saccharomyces cerevisiae, Assay Type: Reverse gene mutation, Assay Code: YER+, Evaluation Type: Evaluation A (Pre-1980)) “active; positive”.
